For assay [1], the system named is human colon cancer cells HCT-116. Nature of the assay: MTT growth inhibition, HCT-116. Format: cell-based. The settings on record: 24 hours. As for the experimental part: (§1) Cell viability was determined by an MTT colorimetric assay. Briefly, human colon cancer cells HCT-116 or HT-29, were plated in 96-well microtiter plates with 3000 cells/well and allowed to attach for 24 hours at 37° C. and 5% CO2. The test compounds (in DMSO) were added to cell culture medium to desired final concentrations (final DMSO concentrations for control and treatments were 0.1%). After the cells were cultured for 24 hours, the medium was aspirated and cells were treated with 200 μL fresh medium containing 2.41 mmol/L MTT. After incubation for 3 hours at 37° C., the medium containing MTT was aspirated, 100 μL of DMSO was added to solubilize the formazan precipitate, and the plates were shaken gently for an hour at room temperature. Absorbance values were derived from the plate reading at 550 nm on a Biotek (Winooski, Vt., United States of America) microtiter plate reader. The reading reflected the number of viable cells and was expressed as a percentage of viable cells in the control. CCD-18Co cells were grown in EMEM. Both HCT-116 and HT-29 cells were cultured in McCoy's 5A medium. All of the above media were supplemented with 10% fetal bovine serum, 1% penicillin/streptomycin, and 1% glutamine, and the cells were kept in a 37° C. incubator with 95% humidity and 5% CO2.

The test system of another assay is heme oxygenase-1 (HO-1). Nature of the assay: Western blotting of HO-1 expression in CCD 841 CoN cells. The assay is classed as cell-based, human. As to the method: Human normal colonic epithelial cells (CCD 841 CoN) were grown in Eagle's Minimum Essential Medium with 10% fetal bovine serum and 1% penicillin/streptomycin, and maintained at 37° C. in a 100% humidified atmosphere of 5% CO2 and 95% air. Fresh growth medium was added to the cells every two days until confluent. Cells were planted in 145×20 mm flat-bottomed tissue culture dishes and growth to 70-80% confluence and then treated with compound 27 for various doses and time points. At the end of incubation period, cell lysates were prepared in ice-cold Cell Lysis Buffer (Cell Signaling, Danvers, Mass., United States of America) with 1% protease inhibitor cocktail and 1% phenylmethylsulfonyl fluoride (Sigma, St. Louis, Mo., United States of America). Protein concentrations were measured using BCA Protein Assay Kit (Thermo Scientific, Rockford, Ill., United States of America). […] The bound complexes were detected with SuperSignal Chemiluminescent Substract (Thermo Scientific, Rockford, Ill., United States of America). The immunoblot bands were quantified by densitometry analysis, and the ratio to β-actin was calculated and presented.

The subject of assay [2] is human colon cancer cells HT-29. Nature of the assay: MTT growth inhibition, HT-29. The settings on record: 24 hours. The assay is classed as cell-based. As for the experimental part:
as §1

The source of these data is patent US10342766B2, “6-shogaol derivatives and activities thereof” (North Carolina Agricultural and Technical State University, priority 2017, dated 2019).

“Also recorded” adds a separate entry of the source.

For `CCCCCCCC(=O)/C=C/c1ccc(O)c(O)c1` [Compound 27], the IC50 in assay [1] is 34.1 µM; in assay [2] it was 78.4 µM. For the same compound, the “HO-1 expression, time dependence” value in the assay with heme oxygenase-1 (HO-1) (10 μM for 3, 6, 12 and 24 h, vs control (0 h)) is “significantly increased HO-1 expression; also recorded: increased HO-1 expression in a time-dependent manner”. Further, the “HO-1 protein expression, dose dependence” value in the assay with heme oxygenase-1 (HO-1) (5, 10 and 20 μM for 24 h, vs untreated control) is “significantly increased HO-1 protein expression; also recorded: increased HO-1 expression in a dose-dependent manner”.
